Measured values from US11834566B2, “High-carbon recovered paper and plastic materials with reduced endotoxin levels” (Continuus Materials Intellectual Property, LLC, priority 2020, dated 2023).

Assay: Water-soluble endotoxin in aqueous extract of recovered paper/plastic fragments, L.A.L. kinetic chromogenic method
Conditions: Example 13, about 2,000 ppm glutaraldehyde on fragments
Procedure: Sample #7 from Example 1 was assayed for water-soluble endotoxins. Specifically, a clean, new 500 mL plastic bottle (500 mL capacity) was charged with recovered paper/plastic fragments (20 g, from sample #7 in Example 1) and sterile, cell-culture grade water (200 g). The bottle was immediately capped tightly and agitated in a Gilson shaker for a period of 60 s. The loaded bottle was then conditioned for 1 h at a temperature of 65-70° F. and was then subjected to agitation in the Gilson shaker for a second period of 60 s. The bottle was then opened and a sample of liquor extract (15 mL) was decanted into a sterile sample vial, which was immediately capped and labeled. Collected extract underwent endotoxin analysis using the L.A.L. kinetic chromogenic method.
Recovered paper/plastic sample batches (500 g, as-is basis, #7 sample from Example 1) were loaded into a plastic bin (16.125″×11.25″×6.75″) and were then sprayed with aqueous glutaraldehyde solutions at various target levels. In this process, the loaded bin was weighed initially and was then re-weighed repeatedly during the application of the glutaraldehyde solution until the target application level was achieved. The bin was repeatedly closed and shaken during this process in order to obtain a uniform distribution of the glutaraldehyde on the fragments. […]

SMILES: O=CCCCC=O [glutaraldehyde]
- water-soluble endotoxin crosslinked and converted to water-insoluble material: about 99.9%
